Reference: US9951028B2, “Agricultural chemicals” (REDAG CROP PROTECTION LTD, priority 2013, dated 2018)

Assays:
Format in all cases: in vivo
[1] = test system: Abutilon theophrasti (China Jute); experiment: Herbicidal efficacy screen, corrected necrosis; details: for control over A. theophrasti: after 10 days, Table 5
[2] = test system: Amaranthus retroflexus (redroot pigweed); experiment: Herbicidal efficacy screen, corrected necrosis
[3] = test system: Capsella bursa-pastoris, (shepherd's-purse); experiment: Herbicidal efficacy screen, corrected necrosis
[4] = test system: A. retroflexus, A. theophrasti, C. bursa pastoris; experiment: Herbicidal efficacy screen, text summary of table 2 over all target weed species; details: certain weed species, after 1 day
From the text: (§1) Certain compounds of the invention were screened for herbicidal efficacy against target plants: Amaranthus retroflexus (redroot pigweed), Abutilon theophrasti (China Jute): Capsella bursa-pastoris, (shepherd's-purse) Echinochloa crus-galli, Hordeum vulgare (Barley),

Echinochloa crus-galli = experiment: Herbicidal efficacy screen, corrected necrosis; details: Table 5; for control over E. crus galli: after 10 days
Hordeum vulgare (Barley) = experiment: Herbicidal efficacy screen, corrected necrosis; details: Table 5
[5] = test system: A. theophrasti, E. crus galli, H. vulgare; experiment: Herbicidal efficacy screen, summary of tables 3-5 over all target weed species; details: table 3
From the text: as §1

[6] = 6.25 g/ha, day 1 post application
[7] = 6.25 g/ha, day 7 post application
[8] = 12.5 g/ha, day 1 post application
[9] = 12.5 g/ha, day 7 post application
[10] = 25 g/ha, day 1 post application
[11] = 25 g/ha, day 7 post application
[12] = 50 g/ha, day 1 post application
[13] = 50 g/ha, day 7 post application
[14] = 100 g/ha, day 1 post application
[15] = 100 g/ha, day 7 post application

Question: How did the “Average of corrected necrosis” value [1, 6] turn out when `CC(C)C(C)S(=O)(=O)NC(=O)c1cc(-n2c(=O)cc(C(F)(F)F)n(C)c2=O)c(F)cc1Cl` (stereo not shown) [Compound 26, 2-Chloro-N-(1,2-dimethylpropylsulfonyl)-4-fluoro-5-[3-methyl-2,6-dioxo-4-(trifluoromethyl)pyrimidin-1-yl]benzamide] was run?
Answer: C (C represents a percentage increase in necrosis relative to the control of 0.1-50)

Question: And the “Average of corrected necrosis” value [1, 7]?
Answer: A (A represents a percentage inhibition of 80-100)

Question: And the “Average of corrected necrosis” value [1, 8]?
Answer: 0%

Question: What about the “Average of corrected necrosis” value [1, 9] of the same molecule?
Answer: A (A represents a percentage inhibition of 80-100)

Question: What about the “Average of corrected necrosis” value [1, 10] of the same molecule?
Answer: C (C represents a percentage increase in necrosis relative to the control of 0.1-50)

Question: What about the “Average of corrected necrosis” value [1, 11] of the same molecule?
Answer: A (A represents a percentage inhibition of 80-100)

Question: And the “Average of corrected necrosis” value [1, 12]?
Answer: C (C represents a percentage increase in necrosis relative to the control of 0.1-50)

Question: And the “Average of corrected necrosis” value [1, 13]?
Answer: A (A represents a percentage inhibition of 80-100)

Question: And the “Average of corrected necrosis” value [1, 14]?
Answer: B (B represents a percentage inhibition of 50-80)

Question: What about the “Average of corrected necrosis” value [1, 15] of the same molecule?
Answer: A (A represents a percentage inhibition of 80-100)

Question: And the “Average of corrected necrosis” value [2, 6]?
Answer: C (C represents a percentage increase in necrosis relative to the control of 0.1-50)

Question: And the “Average of corrected necrosis” value [2, 7]?
Answer: A (A represents a percentage inhibition of 80-100)

Question: What about the “Average of corrected necrosis” value [2, 8] of the same molecule?
Answer: C (C represents a percentage increase in necrosis relative to the control of 0.1-50)

Question: And the “Average of corrected necrosis” value [2, 9]?
Answer: A (A represents a percentage inhibition of 80-100)

Question: What about the “Average of corrected necrosis” value [2, 10] of the same molecule?
Answer: C (C represents a percentage increase in necrosis relative to the control of 0.1-50)

Question: What about the “Average of corrected necrosis” value [2, 11] of the same molecule?
Answer: A (A represents a percentage inhibition of 80-100)

Question: And the “Average of corrected necrosis” value [2, 12]?
Answer: C (C represents a percentage increase in necrosis relative to the control of 0.1-50)

Question: And the “Average of corrected necrosis” value [2, 13]?
Answer: A (A represents a percentage inhibition of 80-100)

Question: What about the “Average of corrected necrosis” value [2, 14] of the same molecule?
Answer: C (C represents a percentage increase in necrosis relative to the control of 0.1-50)

Question: And the “Average of corrected necrosis” value [2, 15]?
Answer: A (A represents a percentage inhibition of 80-100)

Question: And the “Average of corrected necrosis” value [3, 6]?
Answer: C (C represents a percentage increase in necrosis relative to the control of 0.1-50)

Question: What about the “Average of corrected necrosis” value [3, 7] of the same molecule?
Answer: A (A represents a percentage inhibition of 80-100)

Question: What about the “Average of corrected necrosis” value [3, 8] of the same molecule?
Answer: C (C represents a percentage increase in necrosis relative to the control of 0.1-50)

Question: And the “Average of corrected necrosis” value [3, 9]?
Answer: 0%

Question: What about the “Average of corrected necrosis” value [3, 10] of the same molecule?
Answer: C (C represents a percentage increase in necrosis relative to the control of 0.1-50)

Question: And the “Average of corrected necrosis” value [3, 11]?
Answer: A (A represents a percentage inhibition of 80-100)

Question: And the “Average of corrected necrosis” value [3, 12]?
Answer: C (C represents a percentage increase in necrosis relative to the control of 0.1-50)

Question: What about the “Average of corrected necrosis” value [3, 13] of the same molecule?
Answer: A (A represents a percentage inhibition of 80-100)

Question: What about the “Average of corrected necrosis” value [3, 14] of the same molecule?
Answer: C (C represents a percentage increase in necrosis relative to the control of 0.1-50)

Question: And the “Average of corrected necrosis” value [3, 15]?
Answer: A (A represents a percentage inhibition of 80-100)

Question: What about the “control compared with the reference compound (saflufenacil)” value [4] of the same molecule?
Answer: better control

Question: Which results are given for `CSc1c(C(F)(F)F)ccc(CNc2nonc2C)c1C` [Compound 47, 4-Methyl-N-[[2-methyl-3-methylsulfanyl-4-(trifluoromethyl)phenyl]methyl]-1,2,5-oxadiazol-3-amine]?
Answer: control over A. theophrasti [1]: good control; control over E. crus galli (Echinochloa crus-galli): good control; control of E. crus galli relative to the reference compound 48 (Echinochloa crus-galli; at low dosages): improved control; control over H. vulgare (Hordeum vulgare (Barley)): good control; control of H. vulgare relative to the reference compound 48 (Hordeum vulgare (Barley); at low dosages): improved control

Question: What does the source list for `CSc1c(C(F)(F)F)ccc(C(=O)Nc2nonc2C)c1C` [Compound 48, 2-Methyl-N-(4-methyl-1,2,5-oxadiazol-3-yl)-3-methylsulfanyl-4-(trifluoromethyl)benzamide, reference compound]?
Answer: control over A. theophrasti [1]: good control; control over E. crus galli (Echinochloa crus-galli): good control

Question: Which results are given for `C#CC(c1ccc(F)cc1)C(CC(=O)OCC)c1c(F)cccc1F` (stereo not shown) [Compound 37, Ethyl 3-(2,6-difluorophenyl)-4-(4-fluorophenyl)hex-5-ynoate]?
Answer: control compared with prior art compounds 27 and 27a [5]: significantly better control; control over all three weed species [5]: excellent control
